Structures can show the parent of a compound that is named as a salt.
Experiments:
[1] = tested on: formalin-induced pain (paw licking behavior); experiment: Rat formalin test (paw licking, acute and delayed/chronic phase); format: in vivo; conditions: for Acute paw lick response, Mean / Chronic (delayed) paw lick response, Mean / delayed paw licking responses vs. control: 100 μM; for Acute paw lick response, Mean / Chronic (delayed) paw lick response, Mean / delayed paw licking responses vs. control / enhancement of the effects of ketamine 100 μM: Example 4; for Paw licking time, Acute, Mean / Paw licking time, Chronic, Mean: NaOH where added equimolar; for Paw licking time, Acute, Mean: acute phase 0-10 min after formalin; for Paw licking time, Chronic, Mean: delayed phase from 10 min after formalin; for enhancement of the effects of ketamine 100 μM: hydroxide combined with ketamine 100 μM; for delayed hind paw licking (marginal means), Mean: TAS2R ligand .5 mM
Experimental: In this test, effects are measured on both acute and delayed formalin-induced pain, as reflected in paw licking behavior.
Methods: All studies were performed at Psychogenics, Inc. (Tarrytown, NY). Male SD rats (Envigo) were used in the study. All rats were examined and weighed (about 200 g) prior to initiation of the study to assure adequate health and suitability. For the formalin test, rats were habituated for 30 min in observation chambers with cameras positioned underneath. After the pre-treatment time, animals received a subcutaneous injection into the plantar surface of the left hind-paw with 15 μl of 5% formalin using a Hamilton micro-syringe and a 30-gauge needle.
Rats were returned to the observation chamber and immediately observed for behavior. The total time spent licking, flinching or biting the treated hind-paw over the next 35 min was recorded and videos were scored by a trained observer blinded to the treatment group. The acute response was evaluated in 5 min intervals for 0-10 min, and the delayed response was evaluated from 10-35 or 10-40 min.
For this experiment, effects of ketamine alone vs. ketamine+NaOH were assessed at concentrations between 30 uM (μM) and […] vs. control. Secondary analyses evaluated relative effects of ketamine+NaOH vs. ketamine alone. Analyses were performed by between-group t-tests or multiway ANOVA as expected. For each experiment, outliers ±2SD from the group means were removed from the analyses as flagged in study reports.
Methods: Overall methods were the same as for Example 1. However, for this study, the concentration of ketamine was fixed at 100 μM across conditions, and the ratio of NaOH to ketamine was varied from 1:10 (0.1 ratio) to 1:2 (0.5 ratio) to 3:4 (0.75 ratio) to 1:1 (1.0 ratio). An ANOVA was conducted across ratios to determine statistical significance.
Methods: Formalin test methods were the same as for examples 1 and 2. […] Denatonium was additionally administered combined with Ketamine 100 μM.
In order to evaluate the specificity of the synergistic effect between ketamine and NaOH, formalin tests were evaluated in combination with other hydroxides, including Ca(OH)2 and KOH. […] Formalin tests were therefore conducted in the presence of 100 μM S-ketamine relative to racemic ketamine.

[2] = tested on: depression-related behaviors in SNL animals with chronic pain; experiment: Forced swim test in spinal nerve ligation (SNL) rats; format: in vivo, rat; conditions: ketamine NaOH at 0.5 ratio, FIG. 5
From the text: Chronic pain may also lead to depressive symptoms that cause additional disability and may reflect an independent treatment target. Anti-depression effects may be modeled in rodents using behavioral measures including the forced swim test, which measures the time that rodents remain immobile when placed in water. In one model, chronic pain Is created by spinal nerve ligation (SNL) in which a ligation is placed around the left L5 nerve, which leads to hypersensitivity of the paw withdrawal threshold.
Methods: Male Sprague Dawley rats (about 150 g on arrival) from Envigo were used. Upon receipt animals were group housed for the remainder of their stay at PsychoGenics. […]
Spinal nerve ligation: Under general anesthesia with continuous inhalation of isoflurane, surgery was performed with aseptic procedures. […] Each rat was monitored until awake and moving freely around the recovery chamber. […]
Forced swim test: The forced swim (FS) test is considered to predict anti-depression effects. When rats are forced to swim in a small cylinder from which no escape is possible, they readily adopt a characteristic immobile posture and make no further attempts to escape except for small movements needed to prevent them from drowning. […] Immobility, climbing, and swimming behaviors were recorded every 5 sec for a total of 60 counts per subject. […]

CNC1(c2ccccc2Cl)CCCCC1=O (racemic) [Ketamine, Ketamine HCl]
Acute paw lick response, Mean [1]: 54.5
Chronic (delayed) paw lick response, Mean [1]: 196.4
delayed paw licking responses vs. control [1]: did not significantly reduce delayed responses
inhibition of delayed response ([1]; concentrations of ≥30 mM, all p<0.005): significant inhibition of delayed response
effects on acute response ([1]; doses of ≥100 mM, all p<0.001, suggesting non-specific behavioral effects): significant effects
Paw licking time, Acute, Mean ([1]; ketamine 30 μM): 55.20 s
Paw licking time, Chronic, Mean ([1]; ketamine 30 μM): 56.00 s
delayed response, post-hoc difference vs. control ([1]; ketamine 30 μM, one-way ANOVA): significant post-hoc differences vs. control
Paw licking time, Acute, Mean ([1]; ketamine 100 μM): 50.95 s
Paw licking time, Chronic, Mean ([1]; ketamine 100 μM): 140.71 s
Paw licking time, Acute, Mean ([1]; ketamine 300 μM): 40.50 s
Paw licking time, Chronic, Mean ([1]; ketamine 300 μM): 147.00 s
Paw licking time, Acute, Mean ([1]; ketamine 30 mM): 39.44 s
Paw licking time, Chronic, Mean ([1]; ketamine 30 mM): 49.88 s
Paw licking time, Acute, Mean ([1]; ketamine 100 mM): 0.11 s
Paw licking time, Chronic, Mean ([1]; ketamine 100 mM): 0.00 s
Paw licking time, Acute, Mean ([1]; ketamine 300 mM): 0.11 s
Paw licking time, Chronic, Mean ([1]; ketamine 300 mM): 0.00 s
immobility time [2]: significantly reduced immobility time
swimming time [2]: increased swimming time

[Ca+2].[OH-].[OH-] [Ca(OH)2]
enhancement of the effects of ketamine 100 μM [1]: Neither Ca(OH)2 or KOH enhanced

C=C[C@H]1C[N@@]2CC[C@H]1C[C@@H]2[C@@H](O)c1ccnc2ccc(OC)cc12 [Quinidine, Quinidine gluconate]
delayed hind paw licking (marginal means), Mean [1]: 288.6 s

[K+].[OH-] [KOH]
enhancement of the effects of ketamine 100 μM [1]: Neither Ca(OH)2 or KOH enhanced

CN[C@]1(c2ccccc2Cl)CCCCC1=O [S-ketamine]
Acute paw lick response, Mean [1]: 50.5
Chronic (delayed) paw lick response, Mean [1]: 120.6
delayed paw licking responses vs. control [1]: numeric decreases in delayed paw licking vs. control, but the differences were not statistically significant

CC[N+](CC)(CC(=O)Nc1c(C)cccc1C)Cc1ccccc1 [Denatonium, Denatonium benzoate]
delayed hyperalgesic response vs. control ([1]; 0.5 mM, p=0.029): significant reduction in hyperalgesia
delayed hind paw licking (marginal means), Mean [1]: 161.0 s
